Assays:
ghost erythrocytes = assay: Membrane fluidity of ghost erythrocytes (TMA-DPH fluorescent probe) of rats on a high-calorie, high-fat, high-cholesterol diet; format: in vivo, rat; conditions: expressed as a % of the control values at time 0; rats after 20 day diet treatment, substance in the diet
Procedure: (§1) In the experimental tests, the rats were given a high-calorie, high-triglyceride, high-cholesterol diet. The following parameters were evaluated after twenty days treatment: • 1) effect of the compositions on the lipoperoxide levels in the plasma, liver, brain and heart; • 2) effect of the compositions on variations in body weight; • 3) effect of the compositions on variations in membrane fluidity of ghost erythrocytes and plasma platelets; • 4) effect of the compositions on the functionality of the hepatic mitochondria, evaluated by measuring: a) O2 consumption; b) reduced glutathione; c) the potential of the mitochondrial membranes; • 5) effect of the compositions on plasma levels of total cholesterol and HDL-cholesterol; • 6) effect of the compositions on plasma levels of total triglycerides.
(§2) 80 Male rats weighing 150-200 g each were used. […] The animals were given the same diet as the controls for 20 days, except that 50 mg of NOPE and 25 mg of B.F. (corresponding to ˜75 mg of the preparation described in example 6) replaced the same quantity of olive oil (olive oil used: 4.825%). • 7th group: treated with green tea bioflavones (B.F.). The animals were given the same diet as the controls for 20 days, except that 25 mg of B.F. replaced the same quantity of olive oil (olive oil used: 4.875%). […]

plasma platelets = assay: Membrane fluidity of plasma platelets (TMA-DPH fluorescent probe) of rats on a high-calorie, high-fat, high-cholesterol diet; format: in vivo, rat; conditions: expressed as a % of the control values at time 0; rats after 20 day diet treatment, substance in the diet
Procedure: as §1, §2

[1] = tested on: lipoperoxide levels (malonyldialdehyde, MDA); assay: Lipoperoxide levels (malonyldialdehyde) in plasma, liver, brain and heart of rats on the diet; format: in vivo, rat; conditions: rats after 20 day diet treatment
Procedure: as §1
(§3) 80 Male rats weighing 150-200 g each were used. The animals were divided into 8 groups of 10 animals: • 1st group: control (C); 10 animals (control at time 0) were used as is, and 10 were given a standard high-calorie, high-fat, high-cholesterol diet for 20 days, consisting of: • casein: 20%; mixture of trace elements and mineral salts: 3.5%; mixture of vitamins: 0.1%; choline bitartrate: 0.2%; cellulose: 2%; cholesterol: 0.5%; sodium cholate: 0.25%; saccharose: 58.44%, lard: 10.0% and olive oil: 4.9%. • 2nd group: treated with N-oleoyl-ethanolamine as such (NOE); the animals were given the same diet as the controls for 20 days, except that 50 mg of NOE replaced the same quantity of olive oil (olive oil used: 4.85%). • 3rd group: treated with N-oleoyl-phosphatidylethanolamine prepared as described in example 1 (NOPE); the animals were given the same diet as the controls for 20 days, except that 50 mg of NOPE (prepared as described in example 1) replaced the same quantity of olive oil (olive oil used: 4.85%). • 4th group: treated with N-oleoyl-ethanolamine+phosphatidic acid prepared as described in example 2: (NOE+PA); the animals were given the same diet as the controls for 20 days, except that 400 mg of the preparation described in example 2 (containing ˜50 mg of NOE and 150 mg of PA) replaced the same quantity of olive oil (olive oil used: 4.50%). • 5th group: treated with N-oleoyl-ethanolamine+lysophosphatidic acid prepared as described in example 3: (NOE+LPA); the animals were given the same diet as the controls for 20 days, except that 150 mg of the preparation described in example 3 (containing ˜50 mg of NOE and 100 mg of LPA) replaced the same quantity of olive oil (olive oil used: 4.75%). • 6th group: treated with “phosphobioflavonic complexes” of N-oleoyl-phosphatidylethanolamine and green tea bioflavones (B.F.) prepared as described in example 6 (NOPE+B.F.). The animals were given the same diet as the controls for 20 days, except that 50 mg of NOPE and 25 mg of B.F. (corresponding to ˜75 mg of the preparation described in example 6) replaced the same quantity of olive oil (olive oil used: 4.825%). • 7th group: treated with green tea bioflavones (B.F.). The animals were given the same diet as the controls for 20 days, except that 25 mg of B.F. replaced the same quantity of olive oil (olive oil used: 4.875%).
Malonyldialdehyde is assayed in accordance with the procedure described by K. Yagi et al., 1982, in “Lipid Peroxides in Biology and Medicine”, Academic Press, New York, 99.324-340.

[2] = Plasma total cholesterol, HDL cholesterol and triglyceride levels of rats on the diet; format: in vivo, rat; conditions: rats after 20 day diet treatment
Procedure: as §1, §3

[3] = Variation in body weight of rats on the diet; format: in vivo, rat; conditions: rats after 20 day diet treatment
Procedure: as §1
(§4) 80 Male rats weighing 150-200 g each were used. […] The animals were given the same diet as the controls for 20 days, except that 50 mg of NOPE and 25 mg of B.F. (corresponding to ˜75 mg of the preparation described in example 6) replaced the same quantity of olive oil (olive oil used: 4.825%). • 7th group: treated with green tea bioflavones (B.F.). The animals were given the same diet as the controls for 20 days, except that 25 mg of B.F. replaced the same quantity of olive oil (olive oil used: 4.875%).

hepatic mitochondria [4] = assay: Functionality of hepatic mitochondria: hepatocellular O2 consumption; format: in vivo, rat; conditions: rats after 20 day diet treatment
Procedure: as §1, §2

hepatic mitochondria [5] = assay: Functionality of hepatic mitochondria: reduced hepatocellular glutathione content; format: in vivo, rat; conditions: rats after 20 day diet treatment
Procedure: as §1, §2

hepatic mitochondria [6] = assay: Functionality of hepatic mitochondria: mitochondrial membrane potential; format: in vivo, rat; conditions: control rats at time 0 = 100%; rats after 20 day diet treatment
Procedure: as §1, §2

[7] = Experimental tests on rats, 20 day diet treatment: overall assessment of Tables I-IV; format: in vivo, rat; conditions: oral administration, 20 days
Procedure: as §1, §4

[8] = Diet treatment tests carried out on man; format: in vivo; conditions: oral administration
Description: A series of experimental tests on rats and clinical tests on man have been carried out to study the pharmacological and/or dietetic characteristics of the composition of the invention.
In all the diet treatment tests carried out on man, the effects obtainable by orally the formulations claimed by the invention (NAPE; NAE+PA; NAE+LPA; NAPE+B.F. and NAE plus PA and/or LPA+B.F.) always provided highly significant results and advantages, both in preventing biological signs of aging (improvement in mitochondrial activity, better membrane fluidity, improvement in plasma antioxidant defences, and limited weight increase) and improving the clinical parameters tested in relation to prevention of aging, and many of the metabolic disorders associated therewith.

## CCCCCCCC/C=C\CCCCCCCC(=O)NCCO [NOE, N-oleoyl-ethanolamine]
Ghost erythrocytes
  Membrane fluidity (ghost erythrocytes): 72%
Plasma platelets
  Membrane fluidity (plasma platelets): 70%
[1]
  MDA BRAIN: 106 ± 7 nmoles of malonyldialdehyde (MDA) per gram of tissue
  MDA HEART: 44 ± 9 nmoles of malonyldialdehyde (MDA) per gram of tissue
  MDA LIVER: 44.1 ± 8.2 nmoles of malonyldialdehyde (MDA) per gram of tissue
  MDA PLASMA: 5.0 ± 0.6 nmoles of malonyldialdehyde (M
[2]
  HDL cholesterol: 28.9 ± 2.8 mg/dL
  Total cholesterol: 120.4 ± 12.7 mg/dL
  Total triglycerides: 80.5 ± 6.8 mg/dL
[3]
  Body weight: 221 ± 16 gm
Hepatic mitochondria [4]
  Hepatocellular O2 consumption: 368 ± 52 umoles O2/min per 10^7 cells
Hepatic mitochondria [5]
  Reduced glutathione: 36 ± 6 nmoles × 10^6 cells
Hepatic mitochondria [6]
  Mitochondrial membrane potential: 70%
[7]
  Statistical significance of the effects of Tables I-IV (membrane fluidity, antioxidant defences, body weight, cholesterol and triglycerides, mitochondria): no statistically significant benefit
[8]
  Benefit in preventing biological signs of aging and improving clinical parameters: no significant benefit

## N-oleoyl-phosphatidylethanolamine [NOPE]
Ghost erythrocytes
  Membrane fluidity (ghost erythrocytes): 84%
Plasma platelets
  Membrane fluidity (plasma platelets): 81%
[1]
  MDA BRAIN: 85 ± 9 nmoles of malonyldialdehyde (MDA) per gram of tissue
  MDA HEART: 32 ± 7 nmoles of malonyldialdehyde (MDA) per gram of tissue
  MDA LIVER: 33.1 ± 6.5 nmoles of malonyldialdehyde (MDA) per gram of tissue
  MDA PLASMA: 3.8 ± 0.4 nmoles of malonyldialdehyde (M
[2]
  HDL cholesterol: 31.6 ± 3.9 mg/dL
  Total cholesterol: 110.3 ± 10.1 mg/dL
  Total triglycerides: 71.4 ± 8.7 mg/dL
[3]
  Body weight: 209 ± 18 gm
Hepatic mitochondria [4]
  Hepatocellular O2 consumption: 408 ± 62 umoles O2/min per 10^7 cells
Hepatic mitochondria [5]
  Reduced glutathione: 41 ± 5 nmoles × 10^6 cells
Hepatic mitochondria [6]
  Mitochondrial membrane potential: 81%
[7]
  Statistical significance of the effects of Tables I-IV (membrane fluidity, antioxidant defences, body weight, cholesterol and triglycerides, mitochondria): always statistically significant
